Test: wn = mass fraction of the nth substance listed
Conditions: Liquid

CN(CCO)CCO [N-methyldiethanolamine] + O
Conditions | mass density [kg/m3]
298.31 K, 205 kPa, w1 = 0.3 | 1023.7
298.31 K, 506 kPa, w1 = 0.3 | 1023.8
298.31 K, 1006 kPa, w1 = 0.3 | 1024
298.31 K, 2006 kPa, w1 = 0.3 | 1024.3
298.32 K, 5003 kPa, w1 = 0.3 | 1025.5
298.33 K, 206 kPa, w1 = 0.15 | 1009.9
298.33 K, 508 kPa, w1 = 0.15 | 1010
298.33 K, 1008 kPa, w1 = 0.15 | 1010.2
298.33 K, 2008 kPa, w1 = 0.15 | 1010.6
298.34 K, 5006 kPa, w1 = 0.15 | 1011.9
